According to article PMC7381750, “JP1 suppresses proliferation and metastasis of melanoma through MEK1/2 mediated NEDD4L-SP1-Integrin αvβ3 signaling” (Theranostics, 2020):
Values joined by “and” are separate entries in the source; they are usually repeats but may differ in a detail not shown here. Equal values may be shown once. “Also recorded” adds a separate entry of the source. Non-standard residues stand in square brackets, D forms with d. Residues, ends and D or L forms follow the SMILES beside them. pS = N[C@@H](COP(=O)(O)O)C(=O)O

Experiments:
B16F10 cell = assay: B16F10 melanoma-bearing model, JP1 and DTIC alone or in combination; type: in vivo, mouse; settings: 50 mg/kg JP1 combined with 40 mg/kg DTIC
Experimental: (A-C) (A) Schematic representation of the B16F10 and MEWO cells melanoma-bearing model for JP1 treatment (n = 6 per group). JP1 and its control agents were administered by intraperitoneal injection. […] (D-G) (D) Schematic representation of the B16F10 cell melanoma passive metastasis model for JP1 treatment. JP1 and its control agents were administered by intraperitoneal injection. […] (F) The representative melanoma lung metastatic images by H&E-staining (scale bars, 1000 μm). […] (J-L) (J) Schematic representation of the B16F10 cell melanoma-bearing model (n= 6 per group). Both JP1 and DTIC alone or in combination treatments and relative control was administered by intraperitoneal injection in mice.
The chemotherapeutic agent dacarbazine (DTIC) is currently as the first line drug used to treat metastatic melanoma in clinic, and was reported to cause painful symptoms and acquired resistance, compromising patient quality of life. To determine the possibility as a combination therapy between DTIC and JP1, we completed a joint treatment of DTIC and JP1 for melanoma tumor-bearing model (Figure 2J).

LD50 in mouse = settings: in vivo
[1] = Cynomolgus monkey toxicity test: body weight; type: in vivo
Experimental: (§1) The test was completed by Suzhou Xishan Zhongke Drugs Research and Development Co., Ltd. (Xishan, Suzhou, China). The study proposal was approved by the Institute Animal Care and Use Committee (IACUC, ID19012912). Cynomolgus monkeys (3-4 years old) were randomly divided into three groups (n = 4 per group, half male and female); and the monkeys were treated with solvent control (Mannitol in saline, 75 mg/kg/d), JP1 (45 mg/kg/day) and JP1 (150 mg/kg/day) for 14 days. The experiment was ended on 15th day and the animals were euthanasia. The relevant clinical parameters were determined on 7th and 13th day, respectively. The observed parameters were including clinical symptoms, weight, food intake, body temperature, ophthalmology, electrocardiogram, blood routine examination, blood biochemistry, blood coagulation, urinalysis, immunotoxicity.
(§2) Supplementary database files: Cynomolgus monkey toxicity test […]
(§3) The study was conducted by a contract service in Suzhou Xishan Zhongke Drugs Research and Development Co., Ltd. (Xishan, Suzhou, China). All the use of animals were approved by the Institute Animal Care and Use Commttee, IACUC. IACUC no. :
(§4) ID19012912. The veterinarian will supervise the breeding and welfare of the animals. The company follows the Guide for the Care and Use of Laboratory Animals (8th ed., 2011).
(§5) Cynomolgus monkeys (3-4 years old) were randomly divided into three groups (n = 4 per group, two males and two females for each group); and treated q.d./i.v. with Mannitol (75 mg/kg/d in saline), JP1 (45 mg/kg/d) and JP1 (150 mg/kg/d) for 14 days, respectively. JP1 was dissolved in saline (100 mg/2 ml) and administered intravenously at a rate of 3 ml/min.
(§6) The JP1 was provided by Hybio Pharmaceutical Co., Ltd. (Shenzhen, China); the production of small packaging preparation (100 mg/vial in freeze-dried powder, purity > 98%; -20 °C for storage and transportation) was completed under strict GMP conditions and quality control procedures for biological preparations. No recovery period was set for this test; the experimental model was ended on 15th day. […]
(§7) relevant clinical indicators in two JP1 groups were no difference compared with those in […]
(§8) Level (NOAEL) of JP1 was 150 mg/kg.

[2] = Cynomolgus monkey toxicity test: urinalysis; type: in vivo
Experimental: as §1, §2, §3, §4, §5
as §6, with “day. The relevant clinical indicators including symptoms, body weight, food intake, temperature, ophthalmology, electrocardiogram, blood routine examination, blood biochemistry, blood coagulation, urinalysis, immunotoxicity were determined on 7th and 13th, respectively.” for “day.”
(§9) indicators in all animals, and the pathological observation of organs was not determined. […]
as §7, §8

[3] = Cynomolgus monkey toxicity test: immunotoxicity; type: in vivo
Experimental: as §1, §2, §3, §4, §5
as §6, with “day. The relevant clinical indicators including symptoms, body weight, food intake, temperature, ophthalmology, electrocardiogram, blood routine examination, blood biochemistry, blood coagulation, urinalysis, immunotoxicity were determined on 7th and 13th, respectively.” for “day.”
as §9, §7, §8

in vivo = settings: male, Sprague-Dawley, rat, ip, 100 mg/kg, half-life (t1/2)
Experimental: The drug half-life (t1/2) is calculated by the formula t1/2 = 0.693/k, where k is the elimination rate constant (k = (Inc1-Inc2)/(t2-t1)).

[4] = JP1 45 mg/kg/d i.v., D7, monkeys 1105,1106,2107,2108, 45 mg/kg/day
[5] = JP1 150 mg/kg/d i.v., D7, monkeys 1209,1210,2211,2212, 150 mg/kg/day
[6] = JP1 45 mg/kg/d i.v., D7, monkeys 1105,1106,2107,2108
[7] = JP1 45 mg/kg/d i.v., D13, monkeys 1105,1106,2107,2108
[8] = JP1 45 mg/kg/d i.v., D13, monkeys 1105,1106,2107,2108, 45 mg/kg/day
[9] = JP1 150 mg/kg/d i.v., D7, monkeys 1209,1210,2211,2212
[10] = JP1 150 mg/kg/d i.v., D13, monkeys 1209,1210,2211,2212
[11] = JP1 150 mg/kg/d i.v., D13, monkeys 1209,1210,2211,2212, 150 mg/kg/day

For `CC(=O)N[C@@H](Cc1ccccc1)C(=O)N1CCC[C@H]1C(=O)NCC(=O)N[C@@H](COP(=O)(O)O)C(=O)N[C@@H](CC(=O)O)C(=O)N[C@@H](CCCNC(=N)N)C(=O)N[C@@H](Cc1ccccc1)C(=O)NCC(=O)NCC(=O)NCC(=O)NCC(=O)N[C@@H](CCCNC(=N)N)C(=O)NCC(=O)N[C@@H](CC(=O)O)C(N)=O` [JP1] (Ac-FPG[pS]DRFGGGGRGD-NH2), the body weight curve (B16F10 cell) was “stable”, the liver injury (B16F10 cell; compared to DTIC alone) was “without obvious liver injury” and the LD50 (LD50 in mouse) was > 5000 mg/kg. For the same compound, the Body weight [1, 4] was 2.1 kg and 2.2 kg and 2.3 kg, the Body weight ([1]; JP1 45 mg/kg/d i.v., D14, monkeys 1105,1106,2107,2108, 45 mg/kg/day) was 2.5 kg and 2.4 kg and the Body weight [1, 5] was 2.4 kg and 2.2 kg and 2.3 kg. For the same compound, the Body weight ([1]; JP1 150 mg/kg/d i.v., D14, monkeys 1209,1210,2211,2212, 150 mg/kg/day) was 2.2 kg and 2.3 kg and 2.6 kg, the “GLU (urine)” value [2, 6] was “NORMAL” and the “URO (Urobilinogen)” value [2, 6] was “NORMAL”. The “COL (urine)” value [2, 4] was “COLORLESS; also recorded: YELLOW”, the “SG (Urine specific gravity)” value [2, 4] was 1.004 and 1.005 and 1.008 and 1.012 and the “pH (urine)” value [2, 4] was 8.0 and 8.5. For the same compound, the “COL (urine)” value [2, 7] was “COLORLESS”, the “GLU (urine)” value [2, 7] was “NORMAL” and the “URO (Urobilinogen)” value [2, 7] was “NORMAL”. The “SG (Urine specific gravity)” value [2, 8] was 1.006 and 1.007 and 1.009, the “pH (urine)” value [2, 8] was 7.5 and 8.0 and 8.5 and the “GLU (urine)” value [2, 9] was “NORMAL”. The “URO (Urobilinogen)” value [2, 9] was “NORMAL”, the “COL (urine)” value [2, 5] was “LIGHT YELLOW; also recorded: COLORLESS” and the “SG (Urine specific gravity)” value [2, 5] was 1.002 and 1.009 and 1.020 and 1.006. For the same compound, the “pH (urine)” value [2, 5] was 7.5 and 8.5, the “GLU (urine)” value [2, 10] was “NORMAL” and the “LEU (Urine leukocyte)” value [2, 10] was “NEG”. For the same compound, the “URO (Urobilinogen)” value [2, 10] was “NORMAL”, the “COL (urine)” value [2, 11] was “COLORLESS; also recorded: LIGHT YELLOW” and the “SG (Urine specific gravity)” value [2, 11] was 1.004 and 1.013 and 1.005 and 1.009. For the same compound, the “pH (urine)” value [2, 11] was 8.0 and 8.5 and 7.5, the “CD3+CD4+” value [3, 4] was 14.420% and 14.760% and 20.160% and 13.220% and the “CD3+CD8+” value [3, 4] was 27.140% and 25.500% and 32.040% and 35.620%. The “CD3+CD4+” value [3, 8] was 13.100% and 19.100% and 14.180% and 13.220%, the “CD3+CD8+” value [3, 8] was 41.820% and 43.140% and 47.160% and 31.220% and the “CD3+CD8+” value [3, 5] was 35.120% and 32.940% and 27.060% and 33.660%. The “CD3+CD4+” value [3, 11] was 24.420% and 20.280% and 28.260% and 22.580%, the “CD3+CD8+” value [3, 11] was 40.460% and 36.280% and 38.920% and 46.260% and the half-life (in vivo) was ~1.32 h.
